Results reported in PMC10452266, “Divergent Pharmacology and Biased Signaling of the Four Melanocortin-4 Receptor Isoforms in Rainbow Trout (Oncorhynchus mykiss)” (Biomolecules, 2023).
Entries after “also recorded” stand apart in the source; their conditions may differ.

How the values were obtained:
[1] = biological target: T1, hMC4R (Homo sapiens, UniProt P32245); settings: ref [48],[51],[81]; cited from earlier work
T1 construct: expressed in transfected cells; host or cells: HEK293T
Excerpt: (§1) MC4R-mediated ERK1/2 signaling has a crucial role in the modulation of energy homeostasis. Although teleost Mc4rs have much higher basal activities in Gs-cAMP signaling, constitutive activation of ERK1/2 signaling is only observed in topmouth culter Mc4r but not in saMc4r and ciMc4r. […] Our data documented that these three compounds only activated ERK1/2 signaling of omMc4rb1 but not the other three omMc4rs (Figure 9).

[2] = tested on: ciMc4r; settings: ciMc4r (grass carp); ref [48],[51],[81]; cited from earlier work
Excerpt: as §1

[3] = tested on: saMc4r; settings: saMc4r (spotted scat); ref [48],[51],[81]; cited from earlier work
Excerpt: as §1

[4] = tested on: ciMc4r; settings: stated as similar to trout Mc4rs, ref [15],[51]; cited from earlier work
[5] = tested on: omMc4ra1; test: ERK1/2 phosphorylation assay, omMc4ra1; format: cell-based, rainbow trout (Oncorhynchus mykiss); settings: 1 μM α-MSH, 10 nM AgRP, 1 μM MCL0020, 1 μM Ipsen 5i or 1 μM ML00253764, 5 min, HEK293T, Western blot, at least three independent experiments
Description: (§2) Human Embryonic Kidney (HEK) 293T cells, provided by American Type Culture Collection (Manassas, VA, USA), were cultured as described previously. Cells were plated into 24-well or 6-well plates pre-coated with 0.1% gelatin and transfected with plasmids by the calcium phosphate precipitation method.
(§3) HEK293T cells were transfected with omMC4Rs. Twenty-four hours after transfection, cells were washed twice and starved in media without serum for 24 h. […] Rabbit anti-pERK1/2 antibody (Catalog #4370, Cell Signaling, Beverly, MA, USA) and mouse anti-β-tubulin antibody (Developmental Studies Hybridoma Bank, University of Iowa, Iowa City, IA, USA) were used in this study. The bound antibodies were quantified using ImageJ 1.44 software (National Institute of Health, Bethesda, MD, USA).
(§4) Figure 9 ERK1/2 signaling properties of trout Mc4rs. (A) Immunoblots of pERK1/2 in cells expressing omMc4ra1, omMc4ra2, omMc4rb1, or omMc4rb2. HEK293T cells were transiently transfected with omMc4ra1, omMc4ra2, omMc4rb1, omMc4rb2, or empty vector plasmids and were starved overnight 24 h after transfection. […] Western blots were performed as described in Materials and Methods. (B) Densitometry results of basal pERK1/2 levels of omMc4ra1, omMc4ra2, omMc4rb1, and omMc4rb2. (C) Densitometry results of pERK1/2 level of omMc4ra1. (D) Densitometry results of pERK1/2 level of omMc4ra2. […]

[6] = tested on: ciMc4r; settings: stated as similar to omMc4rs, ref [51]; cited from earlier work
Excerpt: (§5) Numerous constitutively active mutants have been reported in several GPCRs, resulting in various human diseases, and inverse agonism will be vital for correcting the diseases caused by activating mutations in GPCRs. The constitutive activity of teleost Mc4r may have important physiological functions.

[7] = tested on: saMc4r; settings: stated as similar to omMc4rs, ref [51]; cited from earlier work
Excerpt: as §5

[8] = biological target: T1, hMC4R; settings: ref [15],[51]; cited from earlier work
[9] = tested on: omMc4ra1; test: Ligand-binding assay (displacement of 125I-NDP-MSH), omMc4ra1; set-up: species or system rainbow trout (Oncorhynchus mykiss); settings: AgRP 10^-12 to 10^-7 M, MCL0020 and Ipsen 5i 10^-11 to 10^-6 M, ML00253764 10^-10 to 10^-5 M, transfected HEK293T cells
Description: as §2
(§6) A binding assay was conducted as described previously. […].
(§7) Binding assays were used to investigate the binding properties of omMc4rs. […].  Figure 6 Ligand-binding properties of omMc4rs. […]. Data are expressed as % of hMC4R binding ± range from duplicate measurements within one experiment. The curves are representative of at least three independent experiments.

[10] = tested on: omMc4rb1; test: Effect of antagonists on basal cAMP level, omMc4rb1; format: cell-based, rainbow trout (Oncorhynchus mykiss); settings: 10 nM AgRP, 1 μM MCL0020, 1 μM ML00253764 or 1 μM Ipsen 5i, 1 h, HEK293T, RIA, three independent experiments
Description: (§8) Cells were plated into 24-well or 6-well plates pre-coated with 0.1% gelatin and transfected with plasmids by the calcium phosphate precipitation method.
(§9) Intracellular cAMP levels were determined according to previous protocol.

[11] = biological target: T1, hMC4R; settings: cited from earlier work
[12] = tested on: omMc4rb2; test: Effect of antagonists on basal cAMP level, omMc4rb2; format: cell-based, rainbow trout (Oncorhynchus mykiss)
Description: as §8, §9

[13] = tested on: saMc4r; settings: stated as similar to trout Mc4rs, ref [15],[51]; cited from earlier work
[14] = tested on: omMc4rb1; test: Ligand-binding assay (displacement of 125I-NDP-MSH), omMc4rb1; set-up: species or system rainbow trout (Oncorhynchus mykiss); settings: AgRP 10^-12 to 10^-7 M, MCL0020 and Ipsen 5i 10^-11 to 10^-6 M, ML00253764 10^-10 to 10^-5 M, transfected HEK293T cells
Description: as §2, §6, §7

[15] = tested on: omMc4rb1; test: ERK1/2 phosphorylation assay, omMc4rb1; format: cell-based, rainbow trout (Oncorhynchus mykiss)
Description: as §2, §3
Figure 9 ERK1/2 signaling properties of trout Mc4rs. (A) Immunoblots of pERK1/2 in cells expressing omMc4ra1, omMc4ra2, omMc4rb1, or omMc4rb2. HEK293T cells were transiently transfected with omMc4ra1, omMc4ra2, omMc4rb1, omMc4rb2, or empty vector plasmids and were starved overnight 24 h after transfection. […] Western blots were performed as described in Materials and Methods. (B) Densitometry results of basal pERK1/2 levels of omMc4ra1, omMc4ra2, omMc4rb1, and omMc4rb2. (C) Densitometry results of pERK1/2 level of omMc4ra1. (D) Densitometry results of pERK1/2 level of omMc4ra2. (E) Densitometry results of pERK1/2 level of omMc4rb1. (F) Densitometry results of pERK1/2 level of omMc4rb2.

[16] = tested on: omMc4ra2; test: ERK1/2 phosphorylation assay, omMc4ra2; format: cell-based, rainbow trout (Oncorhynchus mykiss); settings: 1 μM α-MSH, 10 nM AgRP, 1 μM MCL0020, 1 μM Ipsen 5i or 1 μM ML00253764, 5 min, HEK293T, Western blot, at least three independent experiments
Description: as §2, §3, §4

[17] = tested on: omMc4rb2; test: Ligand-binding assay (displacement of 125I-NDP-MSH), omMc4rb2; set-up: species or system rainbow trout (Oncorhynchus mykiss); settings: AgRP 10^-12 to 10^-7 M, MCL0020 and Ipsen 5i 10^-11 to 10^-6 M, ML00253764 10^-10 to 10^-5 M, transfected HEK293T cells
Description: as §2, §6, §7

[18] = tested on: omMc4ra2; test: Effect of antagonists on basal cAMP level, omMc4ra2; format: cell-based, rainbow trout (Oncorhynchus mykiss); settings: 10 nM AgRP, 1 μM MCL0020, 1 μM ML00253764 or 1 μM Ipsen 5i, 1 h, HEK293T, RIA, three independent experiments
Description: as §8, §9

[19] = tested on: omMc4ra1; test: Effect of antagonists on basal cAMP level, omMc4ra1; format: cell-based, rainbow trout (Oncorhynchus mykiss); settings: 10 nM AgRP, 1 μM MCL0020, 1 μM ML00253764 or 1 μM Ipsen 5i, 1 h, HEK293T, RIA, three independent experiments
Description: as §8, §9

[20] = tested on: ricefield eel Mc4r; set-up: method as in PMID 30075196; settings: ref [15]; cited from earlier work
[21] = tested on: omMc4ra2; test: Ligand-binding assay (displacement of 125I-NDP-MSH), omMc4ra2; set-up: species or system rainbow trout (Oncorhynchus mykiss); settings: AgRP 10^-12 to 10^-7 M, MCL0020 and Ipsen 5i 10^-11 to 10^-6 M, ML00253764 10^-10 to 10^-5 M, transfected HEK293T cells
Description: as §2, §6, §7

[22] = tested on: ricefield eel Mc4r; set-up: method as in PMID 30075196, PMID 32615281; settings: stated as similar to trout Mc4rs, ref [15],[51]; cited from earlier work
[23] = tested on: omMc4rb2; test: ERK1/2 phosphorylation assay, omMc4rb2; format: cell-based, rainbow trout (Oncorhynchus mykiss); settings: 1 μM α-MSH, 10 nM AgRP, 1 μM MCL0020, 1 μM Ipsen 5i or 1 μM ML00253764, 5 min, HEK293T, Western blot, at least three independent experiments
Description: as §2, §3, §4

[24] = concluded from binding, cAMP and pERK1/2 results

T1 sequence (P32245 whole entry): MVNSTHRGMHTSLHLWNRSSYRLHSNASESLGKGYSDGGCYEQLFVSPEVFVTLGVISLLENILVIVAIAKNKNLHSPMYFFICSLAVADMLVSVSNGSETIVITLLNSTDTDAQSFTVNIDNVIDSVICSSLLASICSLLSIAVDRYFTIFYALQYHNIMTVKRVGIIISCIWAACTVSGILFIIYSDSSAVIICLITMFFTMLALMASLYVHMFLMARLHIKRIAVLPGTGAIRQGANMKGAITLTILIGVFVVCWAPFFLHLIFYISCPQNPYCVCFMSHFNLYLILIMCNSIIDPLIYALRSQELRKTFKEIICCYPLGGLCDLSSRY

displacement of 125I-NDP-MSH binding [9]: could not displace
displacement of 125I-NDP-MSH binding [14]: could not displace
displacement of 125I-NDP-MSH binding [17]: could not displace
displacement of 125I-NDP-MSH binding [21]: could not displace
SMILES: COc1ccc(Br)cc1CCc1c(F)cccc1C1=NCCN1 [ML00253764, 2-[2-[2-(5-bromo-2-methoxyphenyl)-ethyl]-3-fluorophenyl]-4,5-dihydro-1H-imidazol]
biased signaling, Gs-cAMP versus ERK1/2 [1]: preferred activation on ERK1/2 signaling
biased signaling, Gs-cAMP versus ERK1/2 [2]: preferred activation on ERK1/2 signaling
biased signaling, Gs-cAMP versus ERK1/2 [3]: preferred activation on ERK1/2 signaling
orthosteric binding by displacing radiolabeled NDP-MSH [4]: neither ML00253764 nor Ipsen 5i bound
effect on ERK1/2 phosphorylation [5]: not by ML00253764, Ipsen 5i, or MCL0020
effect on cAMP levels [6]: did not cause significant effects on the cAMP levels
effect on cAMP levels [7]: did not cause significant effects on the cAMP levels
orthosteric binding [8]: bind to hMC4R orthosterically
effect on basal cAMP level [10]: did not cause significant effects on the cAMP levels
basal activities of WT and constitutively active MC4R mutants ([11]; WT and mutants, ref [48],[51],[57],[58],[80]): decrease the basal activities
basal activity of hMC4R and constitutively active mutant hMC4Rs ([11]; hMC4R and mutants, ref [1],[28],[48],[51]): reduced by inverse agonists
effect on basal cAMP level ([12]; 10 nM AgRP, 1 μM MCL0020, 1 μM ML00253764 or 1 μM Ipsen 5i, 1 h, HEK293T, RIA, three independent experiments): acted as an agonist for omMcrb2 and significantly increasing the cAMP levels; also recorded: did not cause significant effects on the cAMP levels; also recorded: could stimulate cAMP signaling
biased signaling, cAMP versus ERK1/2 [12, 24]: allosteric agonist for omMc4rb2, preferentially activating Gs-cAMP signaling
orthosteric binding by displacing radiolabeled NDP-MSH [13]: neither ML00253764 nor Ipsen 5i bound
effect on ERK1/2 phosphorylation ([15]; 1 μM α-MSH, 10 nM AgRP, 1 μM MCL0020, 1 μM Ipsen 5i or 1 μM ML00253764, 5 min, HEK293T, Western blot, at least three independent experiments): significantly increased
biased signaling, cAMP versus ERK1/2 [15, 24]: biased allosteric modulators for omMc4rb1 with selective activation on ERK1/2 signaling
effect on ERK1/2 phosphorylation [16]: no effect
effect on basal cAMP level [18]: did not cause significant effects on the cAMP levels
effect on basal cAMP level [19]: did not cause significant effects on the cAMP levels
basal cAMP generation [20]: could decrease basal cAMP generation
orthosteric binding by displacing radiolabeled NDP-MSH [22]: neither ML00253764 nor Ipsen 5i bound
effect on ERK1/2 phosphorylation [23]: no effect
